{"source": "patent US12252488B2", "about": "(Nimbus Saturn, Inc., priority 2021, dated 2025)", "data": [{"target": "T1, HPK1 (Homo sapiens, UniProt Q92918)", "T1 construct": "purchased Invitrogen", "T1 sequence (Q92918 whole entry)": "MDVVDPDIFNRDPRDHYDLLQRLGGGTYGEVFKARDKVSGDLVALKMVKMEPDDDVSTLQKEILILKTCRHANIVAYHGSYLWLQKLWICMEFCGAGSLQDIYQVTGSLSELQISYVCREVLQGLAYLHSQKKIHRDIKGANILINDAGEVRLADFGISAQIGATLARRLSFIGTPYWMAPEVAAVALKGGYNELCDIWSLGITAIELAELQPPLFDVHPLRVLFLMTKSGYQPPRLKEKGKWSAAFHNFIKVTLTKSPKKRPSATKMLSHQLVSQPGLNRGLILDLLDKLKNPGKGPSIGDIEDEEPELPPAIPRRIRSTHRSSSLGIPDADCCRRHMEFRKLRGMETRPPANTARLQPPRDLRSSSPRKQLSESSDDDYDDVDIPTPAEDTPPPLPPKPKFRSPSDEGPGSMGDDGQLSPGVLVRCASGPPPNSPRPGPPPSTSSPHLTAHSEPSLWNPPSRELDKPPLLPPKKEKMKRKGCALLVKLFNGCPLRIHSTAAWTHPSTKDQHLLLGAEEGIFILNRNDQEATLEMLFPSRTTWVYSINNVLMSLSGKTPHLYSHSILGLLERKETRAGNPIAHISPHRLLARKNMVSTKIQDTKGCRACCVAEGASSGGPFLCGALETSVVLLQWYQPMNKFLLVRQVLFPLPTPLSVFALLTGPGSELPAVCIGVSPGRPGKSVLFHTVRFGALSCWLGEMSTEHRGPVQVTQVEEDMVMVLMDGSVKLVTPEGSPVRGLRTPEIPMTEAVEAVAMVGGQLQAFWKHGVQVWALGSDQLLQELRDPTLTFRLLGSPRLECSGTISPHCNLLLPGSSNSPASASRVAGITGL", "assay": "HPK1 biochemical enzyme assay (microfluidic mobility shift assay)", "conditions": "1000 uM (1 mM) ATP; Caliper mobility shift; 1.5 nM HPK1; 30 min preincubation; read-out: HPK1 1000UMATP caliper IC50", "experimental": "Example 33. HPK1 Biochemical Enzyme Assay\nHPK1 biochemical enzyme assay: HPK1 enzyme inhibition was measured using a microfluidic mobility shift assay. Reactions were performed in a 384-well plate, containing 1.5 nM HPK1 (Invitrogen), in assay buffer (Carna Biosciences; pH 7.4). Test compounds were titrated in ten point curves (top final assay concentration 3 μM), and preincubated with enzyme/substrate mix for 30 min prior to initiation of the reaction by addition of ATP (1 mM final concentration) and substrate (1 μM final concentration; Carna Biosciences) diluted in assay buffer supplemented by MgCl2 (final assay concentration of 5 mM). Following 60 min incubation at RT, the reaction was terminated by addition of 60 μl/well termination buffer (Carna Biosciences) and signal determination using a Caliper EZ Reader (Perkin Elmer, UK).\nThe compound numbers correspond to the compound numbers in Table 1. Compounds having an activity designated as “A” provided an IC50≤100 nM; compounds having an activity designated as “B” provided an IC50>100 nM and ≤1,000 nM; compounds having an activity designated as “C” provided an IC50>1,000 nM.", "units": {"IC50": "nM"}, "values": [{"smiles": "O=C(Nc1ccc(-c2cc(Nc3ccc(N4CCC(O)CC4)cn3)c3c(=O)[nH]ccc3n2)c(F)c1)[C@@H]1C[C@H]2CC[C@@H]1C2", "note": "(racemic) [I-266, (1R,2R,4S)-N-[3-fluoro-4-[4-[[5-(4-hydroxy-1-piperidyl)-2-pyridyl]amino]-5-oxo-6H-1,6-naphthyridin-2-yl]phenyl] norbornane-2-carboxamide]", "IC50": "≤ 100"}, {"smiles": "O=C(Nc1ccc(-c2cc(Nc3ccc(N4CCC(O)CC4)cn3)c3c(=O)[nH]ccc3n2)c(F)c1)[C@H]1C[C@H]2CC[C@@H]1C2", "note": "(single isomer, unassigned) [I-261]", "IC50": "≤ 100"}, {"smiles": "O=C(Nc1ccc(-c2cc(Nc3ccc(C4CCOC4)cn3)c3c(=O)[nH]ccc3n2)c(F)c1)C1CCCCC1", "note": "(single isomer, unassigned) [I-267, N-[3-fluoro-4-[5-oxo-4-[(5-THF-3-yl-2-pyridyl)amino]-6H-1,6-naphthyridin-2-yl]phenyl] cyclohexane carboxamide]", "IC50": "≤ 100"}, {"smiles": "O=C(Nc1ccc(-c2cc(Nc3ccc(N4CCC(O)CC4)cn3)c3c(=O)[nH]ccc3n2)c(F)c1)[C@@H]1C[C@H]2CC[C@@H]1C2", "note": "(single isomer, unassigned) [I-269]", "IC50": "100 to 1000"}, {"smiles": "CC(O)(c1ccc(F)c(-c2cc(Nc3ccc(N4CCC(O)CC4)cn3)c3c(=O)[nH]ccc3n2)c1)C(F)(F)F", "note": "(single isomer, unassigned) [I-273, 2-(2-fluoro-5-(1,1,1-tifluoro-2-hydroxy-propan-2-yl)phenyl)-4-((5-(4-hydroxy-piperidin-1-yl)pyridin-2-yl)amino)-1,6-naphthyridin-5(6H)-one]", "IC50": "≤ 100"}, {"smiles": "CC(O)(c1ccc(F)c(-c2cc(Nc3ccc(N4CCC(O)CC4)cn3)c3c(=O)[nH]ccc3n2)c1)C(F)(F)F", "note": "(single isomer, unassigned) [I-274, 2-(2-fluoro-5-(1,1,1-hydroxy-propan-2-yl)phenyl)-4-((5-(4-hydroxy-piperidin-1-y)pyridin-2-yl)amino)-1,6-naphthyridin-5(6H)-one]", "IC50": "≤ 100"}, {"smiles": "O=C(Nc1ccc(-c2cc(Nc3ccc(N4CCC(O)CC4)cn3)c3c(=O)[nH]ccc3n2)c(F)c1)[C@H]1C[C@H]2CC[C@@H]1C2", "note": "(single isomer, unassigned) [I-275]", "IC50": "≤ 100"}, {"smiles": "O=C(Nc1ccc(-c2cc(Nc3ccc(N4CCC(O)CC4)cn3)c3c(=O)[nH]ccc3n2)c(F)c1)[C@@H]1C[C@H]2CC[C@@H]1C2", "note": "(single isomer, unassigned) [I-277]", "IC50": "≤ 100"}, {"smiles": "CCNC(=O)c1ccc(Nc2cc(-c3c(F)cccc3F)nc3cc[nH]c(=O)c23)cc1", "note": "[I-4, 4-[[2-(2,6-difluoro-phenyl)-5-oxo-6H-1,6-naphthyridin-4-yl]amino]-N-ethyl-benzamide]", "IC50": "≤ 100"}, {"smiles": "Cc1ccc(F)c(-c2cc(Nc3ccc(N4CCC(O)CC4)cn3)c3c(=O)[nH]ccc3n2)c1", "note": "[I-4I]", "IC50": "> 1000"}, {"smiles": "O=c1[nH]cc(Br)c2nc(-c3c(F)cccc3F)cc(Nc3ccc(N4CCC(O)CC4)cn3)c12", "note": "[I-5, 8-bromo-2-(2,6-difluorophenyl)-4-[[5-(4-hydroxy-1-piperidyl)-2-pyridyl]amino]-6H-1,6-naphthyridin-5-one]", "IC50": "100 to 1000"}, {"smiles": "O=c1[nH]ccc2nc(-c3c(F)cccc3F)cc(Nc3ccc(N4CCNCC4)cn3)c12", "note": "[I-6, 2-(2,6-difluoro-phenyl)-4-[(5-piperazin-1-yl-2-pyridyl)amino]-6H-1,6-naphthyridin-5-one]", "IC50": "≤ 100"}, {"smiles": "CCNC(=O)c1ccc(Nc2nc(-c3c(F)cccc3F)cc3cc[nH]c(=O)c23)cc1", "note": "[I-7, 4-[[3-(2,6-difluorophenyl)-8-oxo-7H-2,7-naphthyridin-1-yl]amino]-N-ethyl-benzamide]", "IC50": "100 to 1000"}, {"smiles": "O=c1[nH]ccc2cc(-c3c(F)cccc3F)nc(Nc3ccc(N4CCC(O)CC4)cn3)c12", "note": "[I-8, 6-(2,6-difluoro-phenyl)-8-[[5-(4-hydroxy-1-piperidyl)-2-pyridyl]amino]-2H-2,7-naphthyridin-1-one]", "IC50": "100 to 1000"}, {"smiles": "CC(C)c1cc(Nc2ccc(N3CCC(O)CC3)cn2)c2c(=O)[nH]ccc2n1", "note": "[I-9, 4-[[5-(4-hydroxy-1-piperidyl)-2-pyridyl]amino]-2-isopropyl-6H-1,6-naphthyridin-5-one]", "IC50": "100 to 1000"}, {"smiles": "CCNC(=O)c1ccc(Nc2nc(C(C)C)nc3cc[nH]c(=O)c23)cc1", "note": "[I-10, N-ethyl-4-[(2-isopropyl-5-oxo-6H-pyrido[4,3-d]pyrimidin-4-yl)amino]benzamide]", "IC50": "100 to 1000"}, {"smiles": "O=c1[nH]cnc2nc(-c3c(F)cccc3F)cc(Nc3ccc(N4CCC(O)CC4)cn3)c12", "note": "[I-11, 7-(2,6-difluorophenyl)-5-[[5-(4-hydroxy-1-piperidyl)-2-pyridyl]amino]-3H-pyrido[2,3-d]pyrimidin-4-one]", "IC50": "100 to 1000"}, {"smiles": "CCNC(=O)c1ccc(Nc2nc(-c3c(F)cccc3F)cc3nc[nH]c(=O)c23)cc1", "note": "[I-12, 4-[[7-(2,6-difluorophenyl)-4-oxo-3H-pyrido[4,3-d]pyrimidin-5-yl]amino]-N-ethyl-benzamide]", "IC50": "100 to 1000"}, {"smiles": "O=c1[nH]cnc2cc(-c3c(F)cccc3F)nc(Nc3ccc(N4CCC(O)CC4)cn3)c12", "note": "[I-13, 7-(2,6-difluoro-phenyl)-5-[[5-(4-hydroxy-1-piperidyl)-2-pyridyl]amino]-3H-pyrido[4,3-d] pyrimidin-4-one]", "IC50": "100 to 1000"}, {"smiles": "CCNC(=O)c1ccc(Nc2cc(-c3c(F)cccc3F)nc3nc[nH]c(=O)c23)cc1", "note": "[I-14, 4-[[7-(2,6-difluoro-phenyl)-4-oxo-3H-pyrido[2,3-d]pyrimidin-5-yl]amino]-N-ethyl-benzamide]", "IC50": "≤ 100"}, {"smiles": "CC(O)c1c[nH]c(=O)c2c(Nc3ccc(N4CCC(O)CC4)cn3)cc(-c3c(F)cccc3F)nc12", "note": "(stereo not drawn) [I-15, 2-(2,6-difluorophenyl)-8-(1-hydroxyethyl)-4-[[5-(4-hydroxy-1-piperidyl)-2-pyridyl]amino]-6H-1,6-naphthyridin-5-one]", "IC50": "100 to 1000"}, {"smiles": "CC(C)(O)c1c[nH]c(=O)c2c(Nc3ccc(N4CCC(O)CC4)cn3)cc(-c3c(F)cccc3F)nc12", "note": "[I-16, 2-(2,6-difluorophenyl)-8-(1-hydroxy-1-methyl-ethyl)-4-[[5-(4-hydroxy-1-piperidyl)-2-pyridyl]amino]-6H-1,6-naphthyridin-5-one]", "IC50": "100 to 1000"}, {"smiles": "O=c1[nH]ccc2nc(C3CC3)cc(Nc3ccc(N4CCC(O)CC4)cn3)c12", "note": "[I-17, 2-cyclopropyl-4-[[5-(4-hydroxy-1-piperidyl)-2-pyridyl]amino]-6H-1,6-naphthyridin-5-one]", "IC50": "100 to 1000"}, {"smiles": "CS(=O)(=O)c1ccc(Nc2cc(-c3c(F)cccc3F)nc3cc[nH]c(=O)c23)nc1", "note": "[I-18, 2-(2,6-difluoro-phenyl)-4-[(5-methyl-sulfonyl-2-pyridyl)amino]-6H-1,6-naphthyridin-5-one]", "IC50": "> 1000"}, {"smiles": "O=c1[nH]ccc2nc(C3CCCCC3)cc(Nc3ccc(N4CCC(O)CC4)cn3)c12", "note": "[I-19, 2-cyclohexyl-4-[[5-(4-hydroxy-1-piperidyl)-2-pyridyl]amino]-6H-1,6-naphthyridin-5-one]", "IC50": "100 to 1000"}, {"smiles": "O=c1[nH]ccc2nc(C3CCCC3)cc(Nc3ccc(N4CCC(O)CC4)cn3)c12", "note": "[I-20, 2-cyclopentyl-4-[[5-(4-hydroxy-1-piperidyl)-2-pyridyl]amino]-6H-1,6-naphthyridin-5-one]", "IC50": "100 to 1000"}, {"smiles": "CC(C)c1cc(Nc2ccc(N3CCNCC3)cn2)c2c(=O)[nH]ccc2n1", "note": "[I-21, 2-isopropyl-4-[(5-piperazin-1-yl-2-pyridyl)amino]-6H-1,6-naphthyridin-5-one]", "IC50": "100 to 1000"}, {"smiles": "CC(C)c1cc(Nc2ccc(N3CCOCC3)cn2)c2c(=O)[nH]ccc2n1", "note": "[I-22, 2-isopropyl-4-[(5-morpholino-2-pyridyl)amino]-6H-1,6-naphthyridin-5-one]", "IC50": "≤ 100"}, {"smiles": "CC(C)c1cc(Nc2ccc(S(C)(=O)=O)cn2)c2c(=O)[nH]ccc2n1", "note": "[I-23, 2-isopropyl-4-[(5-methyl-sulfonyl-2-pyridyl)amino]-6H-1,6-naphthyridin-5-one]", "IC50": "100 to 1000"}, {"smiles": "O=c1[nH]ccc2nc(-c3c(F)cccc3F)cc(Nc3ccc(S(=O)(=O)N4CCCCC4)cn3)c12", "note": "[I-24, 2-(2,6-difluoro-phenyl)-4-[[5-(1-piperidyl-sulfonyl)-2-pyridyl]amino]-6H-1,6-naphthyridin-5-one]", "IC50": "100 to 1000"}, {"smiles": "Cc1c[nH]c(=O)c2c(Nc3ccc(N4CCC(O)CC4)cn3)cc(-c3c(F)cccc3F)nc12", "note": "[I-25, 2-(2,6-difluorophenyl)-4-[[5-(4-hydroxy-1-piperidyl)-2-pyridyl]amino]-8-methyl-6H-1,6-naphthyridin-5-one]", "IC50": "100 to 1000"}, {"smiles": "O=c1[nH]ccc2nc(C3CCC3)cc(Nc3ccc(N4CCC(O)CC4)cn3)c12", "note": "[I-26, 2-cyclobutyl-4-[[5-(4-hydroxy-1-piperidyl)-2-pyridyl]amino]-6H-1,6-naphthyridin-5-one]", "IC50": "> 1000"}, {"smiles": "CC(C)Cc1cc(Nc2ccc(N3CCC(O)CC3)cn2)c2c(=O)[nH]ccc2n1", "note": "[I-28, 4-[[5-(4-hydroxy-1-piperidyl)-2-pyridyl]amino]-2-isobutyl-6H-1,6-naphthyridin-5-one]", "IC50": "100 to 1000"}, {"smiles": "CCNC(=O)c1ccc(Nc2cc(C(C)C)nc3cc[nH]c(=O)c23)cc1", "note": "[I-29, N-ethyl-4-[(2-isopropyl-5-oxo-6H-1,6-naphthyridin-4-yl)amino] benzamide]", "IC50": "100 to 1000"}, {"smiles": "CS(=O)(=O)Cc1ccc(Nc2cc(-c3c(F)cccc3F)nc3cc[nH]c(=O)c23)nc1", "note": "[I-30, 2-(2,6-difluoro-phenyl)-4-[[5-(methyl-sulfonyl-methyl)-2-pyridyl]amino]-6H-1,6-naphthyridin-5-one]", "IC50": "100 to 1000"}, {"smiles": "CC(C)c1cc(Nc2ccc(S(=O)(=O)N3CCCCC3)cn2)c2c(=O)[nH]ccc2n1", "note": "[I-31, 2-isopropyl-4-[[5-(1-piperidyl-sulfonyl)-2-pyridyl]amino]-6H-1,6-naphthyridin-5-one]", "IC50": "100 to 1000"}]}]}
